The record followed here is ChEMBL document CHEMBL3425437, “Selective Inhibitors of Cyclin G Associated Kinase (GAK) as Anti-Hepatitis C Agents” (J Med Chem, 2015).

In data set [1] the target is T1, Cyclin-G-associated kinase (Homo sapiens, UniProt O14976).
T1 sequence (O14976 whole entry): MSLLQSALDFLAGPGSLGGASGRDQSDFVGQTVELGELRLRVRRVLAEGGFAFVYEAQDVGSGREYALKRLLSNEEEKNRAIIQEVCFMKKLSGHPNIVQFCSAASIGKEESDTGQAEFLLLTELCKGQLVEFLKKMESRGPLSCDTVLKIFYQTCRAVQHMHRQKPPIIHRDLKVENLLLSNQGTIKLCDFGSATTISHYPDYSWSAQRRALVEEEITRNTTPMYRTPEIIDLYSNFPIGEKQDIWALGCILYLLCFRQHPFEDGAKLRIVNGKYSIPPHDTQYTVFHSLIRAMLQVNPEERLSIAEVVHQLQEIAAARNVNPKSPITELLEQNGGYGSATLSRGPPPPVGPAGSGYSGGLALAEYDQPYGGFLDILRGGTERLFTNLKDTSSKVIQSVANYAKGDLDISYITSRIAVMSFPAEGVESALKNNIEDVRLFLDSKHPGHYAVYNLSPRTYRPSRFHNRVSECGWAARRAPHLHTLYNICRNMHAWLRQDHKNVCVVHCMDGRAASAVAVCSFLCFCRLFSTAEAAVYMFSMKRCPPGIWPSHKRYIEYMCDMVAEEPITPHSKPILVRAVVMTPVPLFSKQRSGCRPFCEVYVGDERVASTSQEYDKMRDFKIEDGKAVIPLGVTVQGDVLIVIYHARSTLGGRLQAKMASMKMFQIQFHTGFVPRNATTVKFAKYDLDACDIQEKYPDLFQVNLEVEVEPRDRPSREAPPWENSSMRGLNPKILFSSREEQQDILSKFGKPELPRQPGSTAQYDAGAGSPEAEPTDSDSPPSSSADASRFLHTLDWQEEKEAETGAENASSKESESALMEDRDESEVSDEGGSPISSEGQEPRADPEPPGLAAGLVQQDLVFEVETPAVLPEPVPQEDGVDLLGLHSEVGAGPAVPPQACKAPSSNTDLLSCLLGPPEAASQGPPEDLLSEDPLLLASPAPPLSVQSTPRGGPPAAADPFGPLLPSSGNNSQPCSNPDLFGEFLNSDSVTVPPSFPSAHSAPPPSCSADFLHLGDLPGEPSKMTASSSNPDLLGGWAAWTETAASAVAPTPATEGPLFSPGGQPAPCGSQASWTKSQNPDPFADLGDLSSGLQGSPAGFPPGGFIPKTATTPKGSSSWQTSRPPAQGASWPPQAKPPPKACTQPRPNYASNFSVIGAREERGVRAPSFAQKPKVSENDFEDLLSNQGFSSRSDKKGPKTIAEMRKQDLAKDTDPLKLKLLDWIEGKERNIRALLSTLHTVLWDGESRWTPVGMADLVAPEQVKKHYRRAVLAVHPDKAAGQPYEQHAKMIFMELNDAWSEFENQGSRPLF
Briefly: Binding affinity to human GAK fused to T7 bacteriophage expressed in Escherichia coli BL21 after 1 hr by qPCR analysis. (In general: Quantitative PCR measures a nucleic acid by following its amplification.)

Data set [2] deals with Hepatitis C virus. Briefly: Antiviral activity against Hepatitis C virus J6/JFH infected in human Huh7.5 cells assessed as inhibition of viral replication measured after 72 hrs by luciferase reporter gene assay. The following applies: Huh-7, 72 h. The class given is functional, organism-based, Hepacivirus hominis. For orientation: A reporter such as luciferase makes a cellular process visible.

Data set [3] in a line: Cytotoxicity against human Huh7.5 cells infected with Hepatitis C virus J6/JFH assessed as effect on cell viability after 72 hrs by Alamarblue assay. The following applies: huh-7, 72 h. The format is cell-based. For orientation: The colour change of resazurin is a common sign of viable cells or microbes.
Data set [4] concerns Hepatitis C virus. Briefly: Antiviral activity against Hepatitis C virus H77 pseudoparticle assessed as inhibition of viral entry into human Huh7.5 cells after 4 hrs by luciferase reporter gene assay. The format is functional, cell-based, Hepacivirus hominis. The following applies: genotype 1a H77, Huh-7, 4 h.
Data set [5] in a line: Cytotoxicity against human Huh7.5 cells infected with Hepatitis C virus H77 pseudoparticle assessed as effect on cell viability after 4 hrs by Alamarblue assay. The following applies: huh-7, 4 h. The class given is cell-based.
Data set [6] has as its system Hepatitis C virus. Briefly: Antiviral activity against Hepatitis C virus J6/JFH electroporated in human Huh7.5 cells assessed as inhibition of intracellular infectivity drug treated every 24 hrs for 72 hrs measured 72 hrs post electroporation by luciferase reporter gene assay. The class given is functional, organism-based, Hepacivirus hominis. The following applies: Huh-7.

Data set [7] has as its system Hepatitis C virus. Briefly: Antiviral activity against Hepatitis C virus J6/JFH infected in human Huh7.5 cells assessed as inhibition of extracellular infectivity drug treated every 24 hrs for 72 hrs measured after 72 hrs by luciferase reporter gene assay. The following applies: Huh-7. The class given is functional, organism-based, Hepacivirus hominis.
Data set [8] deals with Dual specificity protein kinase CLK2 (Homo sapiens, UniProt P49760). Briefly: Binding affinity to human CLK2.
Data set [9] concerns the target Macrophage colony-stimulating factor 1 receptor (Homo sapiens, UniProt P07333). Briefly: Binding affinity to human CSF1R.
Data set [10] deals with T2, Receptor-type tyrosine-protein kinase FLT3 (Homo sapiens, UniProt P36888).
T2 sequence (P36888 whole entry): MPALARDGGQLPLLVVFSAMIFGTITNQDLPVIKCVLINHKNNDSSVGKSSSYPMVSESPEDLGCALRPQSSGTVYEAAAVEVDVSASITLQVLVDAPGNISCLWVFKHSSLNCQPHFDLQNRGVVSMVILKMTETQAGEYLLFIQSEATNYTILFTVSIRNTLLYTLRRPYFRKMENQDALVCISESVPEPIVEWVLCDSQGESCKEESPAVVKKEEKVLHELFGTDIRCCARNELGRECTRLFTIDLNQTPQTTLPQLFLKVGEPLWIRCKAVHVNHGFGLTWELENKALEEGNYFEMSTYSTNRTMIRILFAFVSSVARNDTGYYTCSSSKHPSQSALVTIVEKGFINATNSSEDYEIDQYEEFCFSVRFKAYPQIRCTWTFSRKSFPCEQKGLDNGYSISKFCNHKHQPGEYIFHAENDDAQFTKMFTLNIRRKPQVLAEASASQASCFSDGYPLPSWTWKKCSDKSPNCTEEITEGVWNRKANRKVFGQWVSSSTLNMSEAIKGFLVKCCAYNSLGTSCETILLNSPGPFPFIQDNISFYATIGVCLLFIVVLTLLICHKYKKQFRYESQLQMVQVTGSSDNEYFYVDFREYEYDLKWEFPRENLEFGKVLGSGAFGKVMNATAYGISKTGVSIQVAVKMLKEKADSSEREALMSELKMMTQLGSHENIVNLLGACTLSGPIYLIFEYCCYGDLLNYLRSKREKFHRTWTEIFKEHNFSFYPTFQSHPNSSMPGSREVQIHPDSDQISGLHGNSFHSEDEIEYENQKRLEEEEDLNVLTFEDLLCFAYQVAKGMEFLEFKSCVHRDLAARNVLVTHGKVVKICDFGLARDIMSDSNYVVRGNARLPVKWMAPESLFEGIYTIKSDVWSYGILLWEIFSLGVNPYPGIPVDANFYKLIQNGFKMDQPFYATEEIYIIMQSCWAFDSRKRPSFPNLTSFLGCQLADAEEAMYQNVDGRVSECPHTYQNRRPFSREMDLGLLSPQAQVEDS
Briefly: Binding affinity to human FLT3.

The target of data set [11] is Mast/stem cell growth factor receptor Kit (Homo sapiens, UniProt P10721). Briefly: Binding affinity to human KIT.
For data set [12], the target named is T3, Dual specificity mitogen-activated protein kinase kinase 5 (Homo sapiens, UniProt Q13163).
T3 sequence (Q13163 whole entry): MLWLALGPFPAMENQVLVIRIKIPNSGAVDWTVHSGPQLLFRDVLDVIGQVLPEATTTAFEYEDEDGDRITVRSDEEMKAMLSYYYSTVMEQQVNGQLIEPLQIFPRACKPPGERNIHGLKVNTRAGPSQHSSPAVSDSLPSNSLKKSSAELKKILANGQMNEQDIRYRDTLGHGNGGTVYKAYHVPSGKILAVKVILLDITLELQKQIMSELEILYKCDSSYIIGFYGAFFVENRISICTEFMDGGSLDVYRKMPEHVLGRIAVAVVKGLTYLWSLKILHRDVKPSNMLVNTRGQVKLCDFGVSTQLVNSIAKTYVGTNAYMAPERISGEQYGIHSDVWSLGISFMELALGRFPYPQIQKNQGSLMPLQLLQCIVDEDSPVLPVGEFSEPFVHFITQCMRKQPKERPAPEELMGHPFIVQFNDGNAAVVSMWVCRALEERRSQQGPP
Briefly: Binding affinity to human MEK5.

Data set [13] has as its target Platelet-derived growth factor receptor alpha (Homo sapiens, UniProt P16234). Briefly: Binding affinity to human PDGFRalpha.
The target of data set [14] is Platelet-derived growth factor receptor beta (Homo sapiens, UniProt P09619). Briefly: Binding affinity to human PDGFRbeta.
Chain of Platelet-derived growth factor receptor beta (P09619 whole entry): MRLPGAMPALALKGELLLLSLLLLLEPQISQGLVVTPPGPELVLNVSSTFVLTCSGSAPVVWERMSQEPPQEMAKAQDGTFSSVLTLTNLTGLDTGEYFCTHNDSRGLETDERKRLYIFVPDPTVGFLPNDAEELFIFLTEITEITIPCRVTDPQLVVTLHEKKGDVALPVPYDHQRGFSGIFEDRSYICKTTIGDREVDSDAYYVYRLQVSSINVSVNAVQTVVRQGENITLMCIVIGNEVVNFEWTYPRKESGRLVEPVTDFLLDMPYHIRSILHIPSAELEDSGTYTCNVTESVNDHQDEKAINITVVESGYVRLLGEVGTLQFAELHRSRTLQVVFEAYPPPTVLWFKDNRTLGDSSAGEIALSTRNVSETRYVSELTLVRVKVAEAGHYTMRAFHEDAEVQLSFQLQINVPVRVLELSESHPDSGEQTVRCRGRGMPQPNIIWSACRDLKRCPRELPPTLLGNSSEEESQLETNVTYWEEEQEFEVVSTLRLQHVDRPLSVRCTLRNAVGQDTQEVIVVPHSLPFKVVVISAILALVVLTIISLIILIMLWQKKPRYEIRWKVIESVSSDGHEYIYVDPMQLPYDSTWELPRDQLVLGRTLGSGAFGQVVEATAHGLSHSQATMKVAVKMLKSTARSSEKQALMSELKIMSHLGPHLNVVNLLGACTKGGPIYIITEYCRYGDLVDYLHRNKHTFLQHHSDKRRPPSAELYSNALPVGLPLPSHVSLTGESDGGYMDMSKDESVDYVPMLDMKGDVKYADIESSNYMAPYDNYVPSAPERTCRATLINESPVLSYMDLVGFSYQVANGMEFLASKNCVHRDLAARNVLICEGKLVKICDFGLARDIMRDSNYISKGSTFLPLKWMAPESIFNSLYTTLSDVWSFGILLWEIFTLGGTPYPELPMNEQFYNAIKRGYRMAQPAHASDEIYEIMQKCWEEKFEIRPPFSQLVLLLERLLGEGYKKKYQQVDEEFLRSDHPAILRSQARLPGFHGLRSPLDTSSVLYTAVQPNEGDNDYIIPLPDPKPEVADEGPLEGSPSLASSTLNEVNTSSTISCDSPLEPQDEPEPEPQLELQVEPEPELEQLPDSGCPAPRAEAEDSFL

Chain of Dual specificity protein kinase CLK2 (P49760 whole entry): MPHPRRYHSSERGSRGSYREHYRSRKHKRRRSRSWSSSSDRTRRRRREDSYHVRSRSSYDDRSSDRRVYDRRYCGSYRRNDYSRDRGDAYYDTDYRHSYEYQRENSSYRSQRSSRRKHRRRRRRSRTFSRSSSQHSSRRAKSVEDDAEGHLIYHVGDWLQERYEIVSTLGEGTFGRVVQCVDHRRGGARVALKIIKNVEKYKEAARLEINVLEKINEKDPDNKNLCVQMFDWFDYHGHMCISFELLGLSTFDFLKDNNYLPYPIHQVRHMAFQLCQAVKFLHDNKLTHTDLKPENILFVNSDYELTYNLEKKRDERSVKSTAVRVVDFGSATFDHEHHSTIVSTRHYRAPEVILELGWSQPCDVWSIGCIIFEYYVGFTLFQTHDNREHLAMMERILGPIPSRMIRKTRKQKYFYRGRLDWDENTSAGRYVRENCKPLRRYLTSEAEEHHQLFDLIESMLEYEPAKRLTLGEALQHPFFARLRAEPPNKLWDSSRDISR
Chain of Macrophage colony-stimulating factor 1 receptor (P07333 whole entry): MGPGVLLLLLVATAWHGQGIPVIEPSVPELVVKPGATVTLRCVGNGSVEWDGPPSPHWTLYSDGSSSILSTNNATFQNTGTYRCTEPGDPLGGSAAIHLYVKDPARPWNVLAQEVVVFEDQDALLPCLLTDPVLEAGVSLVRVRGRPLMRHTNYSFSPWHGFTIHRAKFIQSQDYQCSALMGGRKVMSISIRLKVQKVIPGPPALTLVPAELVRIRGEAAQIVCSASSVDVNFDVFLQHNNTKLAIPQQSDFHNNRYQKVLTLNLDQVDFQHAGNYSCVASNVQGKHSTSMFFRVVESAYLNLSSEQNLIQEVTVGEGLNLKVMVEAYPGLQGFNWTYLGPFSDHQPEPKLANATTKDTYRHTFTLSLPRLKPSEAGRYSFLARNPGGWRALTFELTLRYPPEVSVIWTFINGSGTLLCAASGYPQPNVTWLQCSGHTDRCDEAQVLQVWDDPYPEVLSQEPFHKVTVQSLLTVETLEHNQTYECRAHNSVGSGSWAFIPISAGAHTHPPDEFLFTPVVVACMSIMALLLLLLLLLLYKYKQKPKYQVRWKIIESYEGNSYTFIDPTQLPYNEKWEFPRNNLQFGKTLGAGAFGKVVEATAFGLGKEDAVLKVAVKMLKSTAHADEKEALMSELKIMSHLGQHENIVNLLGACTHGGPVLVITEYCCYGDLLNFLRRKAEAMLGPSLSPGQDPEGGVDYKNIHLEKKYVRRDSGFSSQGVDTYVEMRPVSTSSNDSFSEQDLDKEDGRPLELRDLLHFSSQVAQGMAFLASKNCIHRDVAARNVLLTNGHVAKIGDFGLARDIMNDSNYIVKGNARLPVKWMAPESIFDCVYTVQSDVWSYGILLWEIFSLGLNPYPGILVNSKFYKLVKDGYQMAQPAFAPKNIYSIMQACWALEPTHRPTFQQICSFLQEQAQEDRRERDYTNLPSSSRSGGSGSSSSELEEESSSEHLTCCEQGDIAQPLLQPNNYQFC
Chain of Mast/stem cell growth factor receptor Kit (P10721 whole entry): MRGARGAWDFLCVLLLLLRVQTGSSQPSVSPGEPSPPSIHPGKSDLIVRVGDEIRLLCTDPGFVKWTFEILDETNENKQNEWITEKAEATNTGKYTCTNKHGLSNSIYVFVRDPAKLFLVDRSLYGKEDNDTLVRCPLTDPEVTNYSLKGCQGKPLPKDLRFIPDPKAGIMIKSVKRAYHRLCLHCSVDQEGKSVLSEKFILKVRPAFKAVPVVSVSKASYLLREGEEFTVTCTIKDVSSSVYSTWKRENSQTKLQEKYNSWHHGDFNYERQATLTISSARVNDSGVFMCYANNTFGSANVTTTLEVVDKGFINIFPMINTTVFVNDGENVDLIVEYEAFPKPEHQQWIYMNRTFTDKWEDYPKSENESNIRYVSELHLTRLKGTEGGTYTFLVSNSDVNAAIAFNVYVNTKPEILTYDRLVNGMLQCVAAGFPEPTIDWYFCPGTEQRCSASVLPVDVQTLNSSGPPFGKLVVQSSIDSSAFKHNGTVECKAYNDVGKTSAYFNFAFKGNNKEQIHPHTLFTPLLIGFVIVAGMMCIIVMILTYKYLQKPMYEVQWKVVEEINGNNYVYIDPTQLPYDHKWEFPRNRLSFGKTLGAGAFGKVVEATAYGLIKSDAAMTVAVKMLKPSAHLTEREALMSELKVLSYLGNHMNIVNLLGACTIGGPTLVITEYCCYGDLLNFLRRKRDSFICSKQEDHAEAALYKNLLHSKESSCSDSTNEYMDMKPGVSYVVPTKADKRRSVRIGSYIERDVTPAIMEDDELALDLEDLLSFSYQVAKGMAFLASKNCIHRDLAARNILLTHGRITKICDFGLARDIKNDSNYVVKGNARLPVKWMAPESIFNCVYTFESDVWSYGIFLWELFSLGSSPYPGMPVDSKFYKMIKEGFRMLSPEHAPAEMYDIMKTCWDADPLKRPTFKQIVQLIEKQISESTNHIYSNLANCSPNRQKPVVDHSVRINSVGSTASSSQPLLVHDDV
Chain of Platelet-derived growth factor receptor alpha (P16234 whole entry): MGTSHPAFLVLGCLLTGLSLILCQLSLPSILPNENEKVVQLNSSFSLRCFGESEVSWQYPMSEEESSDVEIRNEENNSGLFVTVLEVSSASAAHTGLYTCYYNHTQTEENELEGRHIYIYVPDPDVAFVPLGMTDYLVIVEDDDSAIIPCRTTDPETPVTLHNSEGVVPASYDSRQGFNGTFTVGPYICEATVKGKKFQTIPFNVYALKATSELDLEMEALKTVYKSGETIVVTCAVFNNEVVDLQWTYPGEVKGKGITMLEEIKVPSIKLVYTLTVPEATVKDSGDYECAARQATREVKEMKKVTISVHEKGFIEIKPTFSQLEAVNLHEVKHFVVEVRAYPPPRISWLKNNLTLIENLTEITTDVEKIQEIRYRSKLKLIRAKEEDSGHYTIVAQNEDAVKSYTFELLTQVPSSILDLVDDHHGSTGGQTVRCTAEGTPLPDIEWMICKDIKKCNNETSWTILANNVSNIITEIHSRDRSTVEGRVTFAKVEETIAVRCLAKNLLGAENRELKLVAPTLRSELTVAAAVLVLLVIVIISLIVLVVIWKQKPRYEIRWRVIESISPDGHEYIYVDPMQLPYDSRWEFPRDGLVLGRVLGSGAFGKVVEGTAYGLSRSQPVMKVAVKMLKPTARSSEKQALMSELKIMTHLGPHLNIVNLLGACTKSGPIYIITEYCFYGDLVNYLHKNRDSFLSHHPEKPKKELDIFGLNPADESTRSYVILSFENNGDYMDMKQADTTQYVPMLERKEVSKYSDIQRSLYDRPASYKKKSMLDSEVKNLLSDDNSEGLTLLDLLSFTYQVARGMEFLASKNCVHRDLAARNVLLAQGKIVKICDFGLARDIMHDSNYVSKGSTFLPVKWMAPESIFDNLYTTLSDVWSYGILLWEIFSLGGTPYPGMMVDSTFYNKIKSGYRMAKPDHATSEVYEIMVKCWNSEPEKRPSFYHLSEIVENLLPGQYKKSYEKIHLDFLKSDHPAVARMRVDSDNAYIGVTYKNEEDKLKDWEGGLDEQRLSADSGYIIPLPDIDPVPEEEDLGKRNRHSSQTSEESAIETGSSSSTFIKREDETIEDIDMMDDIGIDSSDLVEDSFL

The molecule `COc1ccc(OC)c(-c2cnc3c(N4CCOCC4)snc3c2)c1` returned a dissociation constant (Kd) in data set [1] of 130 nM.

In data set [1], `COc1cc(-c2cnc3c(N4CCOCC4)snc3c2)ccc1O` showed a Kd of 18 nM.

`COc1ccc(-c2cnc3c(N4CCOCC4)snc3c2)cc1OC` had a Kd in data set [1] of 52 nM.

`COc1cc(-c2cnc3c(N4CCOCC4)snc3c2)ccc1OC(C)=O` registered a Kd in [1] of 18 nM.

As for `c1cc(-c2cnc3c(N4CCOCC4)snc3c2)co1`, in data set [1], binding was characterised by a dissociation constant (Kd) of 200 nM.

`COc1cc(-c2cnc3c(N4CCOCC4)snc3c2)cc(OC)c1OC`: the EC50 in data set [2] is 2550 nM; in data set [4] it was 3600 nM; in data set [6] it was 1640 nM; in [7], 2130 nM. The CC50 in data set [3] stood at 23300 nM. For the same molecule, the Activity entry in data set [5] was “Non-toxic”. In addition, the Kd came to 710 nM in [8]; 320 nM in data set [9]; 110 nM in data set [10]; 29 nM in [11]; 150 nM in data set [12]; 220 nM in data set [13]. In addition, in [14], the Kd turned out to be 70 nM.

As for `C#Cc1cccc(Nc2ncnc3cc(OCCOC)c(OCCOC)cc23)c1` [ERLOTINIB], the EC50 in data set [2], in data set [6] and in data set [7] was 500 nM each time.

Regarding `c1cc(-c2cnc3c(N4CCOCC4)snc3c2)cs1`, the Kd in data set [1] came to 42 nM.

The molecule `COc1cc(OC)cc(-c2cnc3c(N4CCOCC4)snc3c2)c1` gave a Kd in data set [1] of 72 nM.

In the case of `COc1cc(-c2cnc3c(N4CCOCC4)snc3c2)ccc1N`, in [5], the Activity result is listed as “Non-toxic”.

What is called Kd is the constant that tells how readily two partners part at equilibrium. What is called EC50 is the concentration that produces a half-maximal response. The CC50 is the concentration giving 50% cytotoxicity.
